Assay results from ChEMBL document CHEMBL1145498, “A systematic interaction map of validated kinase inhibitors with Ser/Thr kinases” (Proc Natl Acad Sci U S A, 2007).

What was measured:
[1] = biological target: Calcium/calmodulin-dependent protein kinase type II subunit alpha (Homo sapiens) (UniProt Q9UQM7)
[2] = biological target: Calcium/calmodulin-dependent protein kinase type II subunit gamma (Homo sapiens) (UniProt Q13555)
[3] = biological target: T1, Calcium/calmodulin-dependent protein kinase type IV (Homo sapiens) (UniProt Q16566)
T1 sequence (whole entry): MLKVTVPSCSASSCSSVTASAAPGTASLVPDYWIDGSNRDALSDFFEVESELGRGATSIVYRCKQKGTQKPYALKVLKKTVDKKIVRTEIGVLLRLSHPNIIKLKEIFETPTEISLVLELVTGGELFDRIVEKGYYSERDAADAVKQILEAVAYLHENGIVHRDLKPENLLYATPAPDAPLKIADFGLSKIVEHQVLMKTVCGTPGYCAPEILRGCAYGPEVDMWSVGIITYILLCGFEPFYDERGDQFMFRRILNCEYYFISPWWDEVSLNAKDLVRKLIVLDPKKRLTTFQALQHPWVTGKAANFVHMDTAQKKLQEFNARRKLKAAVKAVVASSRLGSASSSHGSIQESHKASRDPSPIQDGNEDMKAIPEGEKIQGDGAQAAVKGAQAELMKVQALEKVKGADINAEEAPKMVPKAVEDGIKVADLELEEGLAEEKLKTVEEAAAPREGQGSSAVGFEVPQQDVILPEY

[4] = biological target: Cyclin-dependent kinase 6 (Homo sapiens) (UniProt Q00534)
[5] = biological target: Dual specificity protein kinase CLK1 (Homo sapiens) (UniProt P49759)
Dual specificity protein kinase CLK1 (Homo sapiens), sequence (P49759 whole entry, looked up): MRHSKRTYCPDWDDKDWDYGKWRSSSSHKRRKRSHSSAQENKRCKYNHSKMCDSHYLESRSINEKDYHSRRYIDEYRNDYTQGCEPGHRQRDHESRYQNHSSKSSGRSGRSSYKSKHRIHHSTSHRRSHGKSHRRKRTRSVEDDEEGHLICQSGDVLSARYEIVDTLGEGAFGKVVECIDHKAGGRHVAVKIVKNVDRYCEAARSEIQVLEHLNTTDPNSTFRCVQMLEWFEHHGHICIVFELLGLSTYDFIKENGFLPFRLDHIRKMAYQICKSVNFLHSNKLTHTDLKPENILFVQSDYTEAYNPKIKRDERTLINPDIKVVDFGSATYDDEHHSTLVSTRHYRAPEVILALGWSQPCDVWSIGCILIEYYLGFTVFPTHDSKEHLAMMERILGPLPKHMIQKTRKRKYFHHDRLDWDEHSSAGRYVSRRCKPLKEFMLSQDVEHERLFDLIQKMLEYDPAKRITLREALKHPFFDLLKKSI

[6] = biological target: Tyrosine-protein kinase JAK1 (Homo sapiens) (UniProt P23458)
Tyrosine-protein kinase JAK1 (Homo sapiens), sequence (P23458 whole entry): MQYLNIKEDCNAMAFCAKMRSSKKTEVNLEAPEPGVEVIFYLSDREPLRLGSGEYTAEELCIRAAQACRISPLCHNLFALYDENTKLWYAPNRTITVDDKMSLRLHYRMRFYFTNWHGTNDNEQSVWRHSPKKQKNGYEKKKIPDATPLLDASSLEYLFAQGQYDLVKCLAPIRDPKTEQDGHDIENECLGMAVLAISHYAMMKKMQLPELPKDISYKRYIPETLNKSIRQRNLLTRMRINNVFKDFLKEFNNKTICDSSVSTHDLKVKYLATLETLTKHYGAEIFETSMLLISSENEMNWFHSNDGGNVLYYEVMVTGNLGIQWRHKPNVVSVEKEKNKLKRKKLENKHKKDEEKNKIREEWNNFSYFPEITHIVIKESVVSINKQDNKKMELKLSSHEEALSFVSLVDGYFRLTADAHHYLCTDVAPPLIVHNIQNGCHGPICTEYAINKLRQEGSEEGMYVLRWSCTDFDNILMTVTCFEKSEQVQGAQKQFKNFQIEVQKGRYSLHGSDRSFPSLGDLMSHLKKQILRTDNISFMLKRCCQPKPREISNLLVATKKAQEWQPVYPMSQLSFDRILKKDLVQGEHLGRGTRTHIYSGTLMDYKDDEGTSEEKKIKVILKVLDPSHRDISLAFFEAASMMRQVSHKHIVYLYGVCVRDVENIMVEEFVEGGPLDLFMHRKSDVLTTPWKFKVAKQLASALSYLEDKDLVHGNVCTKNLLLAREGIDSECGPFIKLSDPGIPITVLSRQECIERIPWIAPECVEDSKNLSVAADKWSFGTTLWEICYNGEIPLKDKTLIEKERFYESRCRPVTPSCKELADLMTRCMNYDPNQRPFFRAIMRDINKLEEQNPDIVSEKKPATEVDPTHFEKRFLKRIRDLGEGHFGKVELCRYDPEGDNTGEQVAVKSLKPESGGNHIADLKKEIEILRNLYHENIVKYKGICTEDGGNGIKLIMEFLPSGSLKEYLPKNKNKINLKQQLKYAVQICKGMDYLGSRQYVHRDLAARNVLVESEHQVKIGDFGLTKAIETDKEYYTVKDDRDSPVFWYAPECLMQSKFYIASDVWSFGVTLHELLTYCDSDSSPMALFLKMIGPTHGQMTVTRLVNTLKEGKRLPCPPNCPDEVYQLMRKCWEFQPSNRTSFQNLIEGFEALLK

[7] = biological target: Serine/threonine-protein kinase 26 (Homo sapiens) (UniProt Q9P289)
Serine/threonine-protein kinase 26 (Homo sapiens), sequence (Q9P289 2-416 limits assumed): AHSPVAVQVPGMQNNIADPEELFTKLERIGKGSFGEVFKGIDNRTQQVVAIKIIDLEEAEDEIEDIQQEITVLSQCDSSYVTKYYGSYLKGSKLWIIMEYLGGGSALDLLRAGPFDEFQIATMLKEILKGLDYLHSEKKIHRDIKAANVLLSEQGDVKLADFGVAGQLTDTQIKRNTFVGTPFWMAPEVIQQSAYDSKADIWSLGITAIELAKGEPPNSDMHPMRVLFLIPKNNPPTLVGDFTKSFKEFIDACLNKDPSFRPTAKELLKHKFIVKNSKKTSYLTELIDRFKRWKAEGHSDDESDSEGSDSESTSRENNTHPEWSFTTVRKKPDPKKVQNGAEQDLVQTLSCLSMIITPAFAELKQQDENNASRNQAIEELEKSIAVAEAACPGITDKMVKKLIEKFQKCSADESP

[8] = biological target: T2, Serine/threonine-protein kinase Nek2 (Homo sapiens) (UniProt P51955)
T2 sequence (whole entry): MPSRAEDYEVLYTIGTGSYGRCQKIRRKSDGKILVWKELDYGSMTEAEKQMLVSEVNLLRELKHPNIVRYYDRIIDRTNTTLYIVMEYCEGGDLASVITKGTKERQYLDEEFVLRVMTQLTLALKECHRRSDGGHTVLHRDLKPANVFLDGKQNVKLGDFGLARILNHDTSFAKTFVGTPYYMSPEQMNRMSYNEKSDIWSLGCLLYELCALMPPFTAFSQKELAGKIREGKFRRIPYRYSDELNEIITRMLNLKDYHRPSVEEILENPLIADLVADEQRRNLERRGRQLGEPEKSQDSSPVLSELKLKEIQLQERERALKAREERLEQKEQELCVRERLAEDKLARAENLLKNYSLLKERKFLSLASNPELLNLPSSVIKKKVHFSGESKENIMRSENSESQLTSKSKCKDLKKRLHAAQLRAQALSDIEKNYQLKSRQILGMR

[9] = biological target: Serine/threonine-protein kinase Nek6 (Homo sapiens) (UniProt Q9HC98)
Serine/threonine-protein kinase Nek6 (Homo sapiens), sequence (Q9HC98 whole entry): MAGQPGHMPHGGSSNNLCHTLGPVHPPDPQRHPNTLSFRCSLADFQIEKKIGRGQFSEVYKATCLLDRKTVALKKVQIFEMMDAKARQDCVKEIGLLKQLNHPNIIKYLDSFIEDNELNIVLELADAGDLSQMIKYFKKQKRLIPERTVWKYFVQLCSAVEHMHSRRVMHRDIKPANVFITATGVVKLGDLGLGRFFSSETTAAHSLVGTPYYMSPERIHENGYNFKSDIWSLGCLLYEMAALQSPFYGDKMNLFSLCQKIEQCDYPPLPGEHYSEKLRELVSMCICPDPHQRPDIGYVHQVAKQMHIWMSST

[10] = biological target: Serine/threonine-protein kinase PAK 6 (Homo sapiens) (UniProt Q9NQU5)
[11] = biological target: T3, 3-phosphoinositide-dependent protein kinase 1 (Homo sapiens) (UniProt O15530)
T3 sequence (whole entry): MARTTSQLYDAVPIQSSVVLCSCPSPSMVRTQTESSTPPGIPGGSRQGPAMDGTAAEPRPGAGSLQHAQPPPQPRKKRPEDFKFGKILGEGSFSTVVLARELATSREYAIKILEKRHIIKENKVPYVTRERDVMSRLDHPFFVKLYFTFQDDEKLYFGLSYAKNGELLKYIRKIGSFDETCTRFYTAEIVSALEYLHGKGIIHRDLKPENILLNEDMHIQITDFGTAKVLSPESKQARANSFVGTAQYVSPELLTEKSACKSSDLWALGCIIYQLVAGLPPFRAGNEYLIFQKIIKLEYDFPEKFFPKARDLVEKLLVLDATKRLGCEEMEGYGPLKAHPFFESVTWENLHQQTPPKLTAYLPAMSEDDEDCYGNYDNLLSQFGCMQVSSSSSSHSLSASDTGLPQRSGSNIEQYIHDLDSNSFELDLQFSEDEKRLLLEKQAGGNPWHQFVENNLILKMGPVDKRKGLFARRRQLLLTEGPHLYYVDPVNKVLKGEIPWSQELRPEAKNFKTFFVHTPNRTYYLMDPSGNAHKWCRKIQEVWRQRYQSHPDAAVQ

[12] = biological target: Serine/threonine-protein kinase pim-3 (Homo sapiens) (UniProt Q86V86)
[13] = biological target: Ribosomal protein S6 kinase alpha-3 (Homo sapiens) (UniProt P51812)
Ribosomal protein S6 kinase alpha-3 (Homo sapiens), sequence (P51812 whole entry): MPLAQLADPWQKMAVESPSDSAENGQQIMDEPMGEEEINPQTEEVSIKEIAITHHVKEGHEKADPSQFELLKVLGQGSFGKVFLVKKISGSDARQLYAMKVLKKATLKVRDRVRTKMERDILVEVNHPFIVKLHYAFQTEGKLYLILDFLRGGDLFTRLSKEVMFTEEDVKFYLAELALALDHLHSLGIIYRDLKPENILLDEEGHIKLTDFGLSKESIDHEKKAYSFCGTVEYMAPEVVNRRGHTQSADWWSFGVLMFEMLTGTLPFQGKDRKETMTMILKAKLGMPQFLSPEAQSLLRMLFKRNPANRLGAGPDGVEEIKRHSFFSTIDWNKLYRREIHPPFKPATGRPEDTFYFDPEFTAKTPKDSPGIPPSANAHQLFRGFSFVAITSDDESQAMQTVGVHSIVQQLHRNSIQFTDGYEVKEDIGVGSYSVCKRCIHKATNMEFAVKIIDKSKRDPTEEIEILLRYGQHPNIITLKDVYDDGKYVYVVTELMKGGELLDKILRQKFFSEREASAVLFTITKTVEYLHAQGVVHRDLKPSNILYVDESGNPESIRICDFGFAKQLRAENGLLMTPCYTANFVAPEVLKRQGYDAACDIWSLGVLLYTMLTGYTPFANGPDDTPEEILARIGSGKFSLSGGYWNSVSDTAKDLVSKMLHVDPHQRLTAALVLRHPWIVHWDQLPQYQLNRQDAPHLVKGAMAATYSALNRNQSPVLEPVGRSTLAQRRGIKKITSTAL

[14] = biological target: STE20-like serine/threonine-protein kinase (Homo sapiens) (UniProt Q9H2G2)
[15] = biological target: Serine/threonine-protein kinase 10 (Homo sapiens) (UniProt O94804)
Serine/threonine-protein kinase 10 (Homo sapiens), sequence (O94804 whole entry, looked up): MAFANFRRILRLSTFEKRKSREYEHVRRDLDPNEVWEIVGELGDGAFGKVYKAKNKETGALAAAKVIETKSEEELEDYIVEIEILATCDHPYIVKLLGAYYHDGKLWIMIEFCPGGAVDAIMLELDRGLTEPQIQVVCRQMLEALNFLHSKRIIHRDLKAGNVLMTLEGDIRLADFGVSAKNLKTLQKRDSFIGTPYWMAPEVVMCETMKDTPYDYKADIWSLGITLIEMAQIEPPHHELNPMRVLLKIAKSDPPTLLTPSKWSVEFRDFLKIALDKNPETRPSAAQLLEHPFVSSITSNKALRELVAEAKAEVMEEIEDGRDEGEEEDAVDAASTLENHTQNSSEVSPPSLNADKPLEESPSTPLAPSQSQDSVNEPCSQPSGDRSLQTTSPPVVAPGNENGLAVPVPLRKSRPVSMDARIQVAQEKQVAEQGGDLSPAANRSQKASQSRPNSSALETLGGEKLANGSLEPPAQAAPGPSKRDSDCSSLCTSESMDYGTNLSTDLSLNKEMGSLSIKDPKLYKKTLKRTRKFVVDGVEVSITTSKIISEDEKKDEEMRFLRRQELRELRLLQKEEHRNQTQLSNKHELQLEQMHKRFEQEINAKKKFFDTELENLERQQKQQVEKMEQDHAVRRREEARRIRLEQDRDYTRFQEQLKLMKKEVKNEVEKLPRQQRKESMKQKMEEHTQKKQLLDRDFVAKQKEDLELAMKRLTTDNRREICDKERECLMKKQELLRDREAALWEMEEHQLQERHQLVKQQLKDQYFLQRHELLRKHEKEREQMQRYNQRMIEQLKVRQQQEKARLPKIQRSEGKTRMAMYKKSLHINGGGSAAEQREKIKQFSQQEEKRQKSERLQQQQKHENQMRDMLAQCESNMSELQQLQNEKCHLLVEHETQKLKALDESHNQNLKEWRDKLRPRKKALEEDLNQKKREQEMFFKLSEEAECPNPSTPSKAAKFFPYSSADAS

[16] = biological target: Serine/threonine-protein kinase 16 (Homo sapiens) (UniProt O75716)
[17] = biological target: T4, Lymphokine-activated killer T-cell-originated protein kinase (Homo sapiens) (UniProt Q96KB5)
T4 sequence (whole entry): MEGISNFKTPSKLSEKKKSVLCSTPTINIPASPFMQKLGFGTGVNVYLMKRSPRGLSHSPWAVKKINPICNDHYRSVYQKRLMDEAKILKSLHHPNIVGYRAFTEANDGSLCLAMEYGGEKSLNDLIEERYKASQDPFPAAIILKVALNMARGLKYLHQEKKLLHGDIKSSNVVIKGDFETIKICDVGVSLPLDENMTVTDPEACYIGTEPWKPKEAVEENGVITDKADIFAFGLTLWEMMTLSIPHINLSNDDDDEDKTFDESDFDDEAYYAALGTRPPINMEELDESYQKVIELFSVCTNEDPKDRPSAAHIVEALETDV

[18] = biological target: Serine/threonine-protein kinase 25 (Homo sapiens) (UniProt O00506)
Serine/threonine-protein kinase 25 (Homo sapiens), sequence (O00506 whole entry, looked up): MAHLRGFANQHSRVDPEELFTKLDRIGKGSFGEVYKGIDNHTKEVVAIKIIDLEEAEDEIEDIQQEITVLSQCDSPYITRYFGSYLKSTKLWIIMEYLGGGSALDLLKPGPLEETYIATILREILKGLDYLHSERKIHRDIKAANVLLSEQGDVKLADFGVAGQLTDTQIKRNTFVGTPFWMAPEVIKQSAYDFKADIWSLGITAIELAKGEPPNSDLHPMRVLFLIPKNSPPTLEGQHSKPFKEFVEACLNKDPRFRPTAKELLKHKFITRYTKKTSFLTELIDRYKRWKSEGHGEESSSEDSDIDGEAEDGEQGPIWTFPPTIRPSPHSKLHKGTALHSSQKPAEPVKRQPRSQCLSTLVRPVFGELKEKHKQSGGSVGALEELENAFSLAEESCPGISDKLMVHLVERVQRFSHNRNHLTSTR

Calcium/calmodulin-dependent protein kinase type II subunit alpha (Homo sapiens), sequence (Q9UQM7 whole entry): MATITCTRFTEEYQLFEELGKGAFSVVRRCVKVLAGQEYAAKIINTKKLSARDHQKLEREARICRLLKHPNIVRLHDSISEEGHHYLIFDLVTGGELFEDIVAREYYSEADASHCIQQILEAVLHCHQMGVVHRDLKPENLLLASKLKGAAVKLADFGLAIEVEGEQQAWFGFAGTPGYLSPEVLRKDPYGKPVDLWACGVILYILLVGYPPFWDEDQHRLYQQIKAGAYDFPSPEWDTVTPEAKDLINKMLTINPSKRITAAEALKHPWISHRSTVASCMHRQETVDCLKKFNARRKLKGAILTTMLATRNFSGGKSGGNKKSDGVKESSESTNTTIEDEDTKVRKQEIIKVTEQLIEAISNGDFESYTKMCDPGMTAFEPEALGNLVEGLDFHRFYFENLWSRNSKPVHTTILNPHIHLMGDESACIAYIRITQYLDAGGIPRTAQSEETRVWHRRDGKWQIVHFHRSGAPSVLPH

| Structure (SMILES) | ΔTm [1] [°C] | ΔTm [2] [°C] | ΔTm [3] [°C] | ΔTm [4] [°C] | ΔTm [5] [°C] | ΔTm [6] [°C] | ΔTm [7] [°C] | ΔTm [8] [°C] | ΔTm [9] [°C] | ΔTm [10] [°C] | ΔTm [11] [°C] | ΔTm [12] [°C] | ΔTm [13] [°C] | ΔTm [14] [°C] | ΔTm [15] [°C] | ΔTm [16] [°C] | ΔTm [17] [°C] | ΔTm [18] [°C] |
| --- | --- | --- | --- | --- | --- | --- | --- | --- | --- | --- | --- | --- | --- | --- | --- | --- | --- | --- |
| CCOC(=O)c1c(C)[nH]c(/C=C2\C(=O)Nc3ccccc32)c1C | -0.6 | -0.1 | -0.4 | -5 | -1.1 | 8.5 | 0.1 | 0.5 | 0.1 | -0.5 | 0.2 | 0.3 | 0.1 | 1.6 | 1.6 | 0.6 | 0.3 | 0.6 |
| O=c1cc(N2CCOCC2)oc2c1ccc1ccccc12 | 0.3 | 0.2 | -0.1 | 0.2 | 0.8 | 0.8 | 0.5 | 0.6 | -0.2 | -0.3 | 0 | 2 | 0.3 | 0.2 | 0.4 | 0.4 | 0.7 | 0.6 |
| COc1ccc2c(c[n+](C)c3c4cc5c(cc4ccc23)OCO5)c1OC [CHELERYTHRINE CHLORIDE] | 0.6 | -0.2 | -0.6 | -1 | -4.4 | 0.3 | -1 | -1.2 | -2.5 | -3.3 | -0.7 | -0.9 | -0.3 | -2.4 | -1.1 | -0.4 | -0.4 | -0.3 |
| COc1cc(/C=C/C(=O)CC(=O)/C=C/c2ccc(O)c(OC)c2)ccc1O [CURCUMIN] | -0.1 | -0.2 | 2.1 | 2.1 | 7.9 | 4.1 | 1.7 | 1.1 | 0.9 | 1.6 | 0.2 | 6.9 | 3 | 3.2 | 6.1 | 0.9 | 0.7 | 4.4 |
| N#CC(C#N)=Cc1ccc(O)c(O)c1 [TYRPHOSTIN 23] | 0.2 | -0.1 | 0.4 | 0.2 | 0.7 | 0.1 | 0.3 | 1.2 | 0.6 | -0.2 | 0.2 | 1.6 | 2.7 | 0.6 | 0.5 | 0.4 | 0.4 | -0.2 |
| CC(C)n1cnc2/c(=N/c3cccc(Cl)c3)nc(NCCO)[nH]c21 | 0.7 | 1.1 | 1.2 | 0 | 5.1 | 3.7 | 2.1 | 1.3 | 0.1 | 3.8 | 0 | 2.3 | 2.1 | 1.6 | 2 | 2.6 | -0.1 | 2.9 |
| CC(C)(C)n1nc(-c2cccc3ccccc23)c2c(N)ncnc21 | 0.3 | 0.2 | -0.1 | -0.3 | 1.1 | -0.1 | -4.9 | -0.2 | 0.1 | 0.3 | -0.4 | 0.7 | 0.3 | 6.1 | 4 | 0.7 | 0.5 | 1.3 |
| COc1cc(OC)c(/C=C2\C(=O)Nc3ccccc32)c(OC)c1 | -0.1 | 0 | -0.1 | 0.3 | 0.1 | 0.5 | 0 | 0.4 | 0 | 0 | -0.1 | 1 | 0.1 | 0.1 | 0.8 | 0.2 | 0.5 | 0.1 |
| CC(C)(C)n1nc(-c2ccc(Cl)cc2)c2c(N)ncnc21 | 0.5 | 0.4 | 0 | -0.4 | 2.1 | 0.3 | -0.5 | 0.3 | 0.2 | -0.1 | -0.1 | 0.7 | 0.4 | 3.6 | 4.7 | 1 | 0.7 | 1.2 |
| C/C(O)=C(\C#N)C(=O)Nc1cc(Br)ccc1Br | 0.1 | -0.1 | 0.1 | 0.2 | 0.5 | 0.7 | 0.2 | 0.9 | -0.2 | -0.2 | -3.7 | 3.8 | 0.2 | 0.4 | 0.9 | 0.4 | 0.8 | -0.1 |
| COc1cccc(-c2cc(=O)c3ccccc3o2)c1N | -0.5 | 0.1 | -0.1 | 0.1 | 0.2 | 1 | -0.1 | -0.2 | -0.1 | 0.4 | -0.2 | 0.7 | -0.2 | -0.1 | 0.4 | 0.6 | 1.2 | 0.5 |
| CCOc1cc2ncnc(Nc3cccc(Br)c3)c2cc1OCC | 0.7 | 0.5 | 0.3 | 0.2 | 2 | 2.7 | 1.3 | 1.1 | 0.7 | 0.8 | -0.9 | 2.7 | 0.2 | 7.9 | 10.3 | 0.9 | 0.1 | 1.5 |
